Where a name gives a salt, the structure may show the parent alone. Read-outs that look alike come from different tables or passages of the source.
Assays:
[1] = target: BACE1 enzyme (Homo sapiens (Human), UniProt P56817); assay: BACE1 efficacy assay (FRET-based, commercial BACE1 kit); assay type: biochemical; conditions: test compound 10 μM, 3 nM enzyme, 250 nM substrate
Protocol: The efficacy assay was performed as a FRET-based assay using a commercially available BACE1 kit (Life Technologies, P2985). 2 μl test compound at 10 μM (final concentration) and 15 μl BACE1 enzyme from the kit (final concentration 3 nM) were preincubated for 15 minutes at room temperature before addition of 15 μl of substrate from the kit (250 nM final concentration) and incubated for additional 90 minutes at room temperature. The assay plate was subsequently read in a Pherastar (Ex540/Em590). […] The efficacy of the test compounds was evaluated at 10 μM (final concentration) and defined as the percent inhibition of the enzyme activity using the equation % inhibition=100%−normalized enzyme activity in percent.

[2] = Brain and plasma exposure in rats after oral dosing (DMPK analysis); assay type: in vivo; conditions: male, Sprague Dawley, rat, 3 hours post dose
Protocol: Young adult Male Sprague Dawley rats of approximately 250 g weight were purchased from Charles River and received 0-30 mg/kg of vehicle (10% HP betaCD+1M MeSO4, pH 2.5) or test compounds (dissolved in vehicle) only by oral gavage (p.o). The compounds are dosed at a volume of 5 ml/kg. Cohorts of 5-10 animals were established for each treatment condition.
At T=180 minutes after initial dosing the animals were stunned and decapitated with a guillotine. Trunk-blood was sampled in EDTA coated tubes after decapitation of the animal. The blood was centrifuged at 2200G at 4° C. for 15 minutes and the plasma was collected and frozen at −80° C. The blood was aliquoted for Aβ ELISA and DMPK analysis. Immediately following sacrifice, the brain was extracted and split into 2 halves. The right hemibrains were snap frozen on dry ice and stored at −80° C. The left half was dissected; with the front forebrain taken for Aβ ELISA and the remainder used for DMPK analysis. These samples were also snap frozen on dry ice and stored at −80° C. until use for analysis.
Compounds 1, 5, 17, 18, and 24 were administered at doses of 10 or 30 mg/kg p.o. and brain and plasma samples were collected at 3 hours post dose and the following exposures and reductions in Aβ40 levels were measured as described above.

[3] = 30 mg/kg p.o., brain, read-out: Exp, brain
[4] = 30 mg/kg p.o., plasma, read-out: Exp, plasma
[5] = 10 mg/kg p.o., brain, read-out: Exp, brain
[6] = 10 mg/kg p.o., plasma, read-out: Exp, plasma

BACE1 enzyme, sequence (P56817 46-501): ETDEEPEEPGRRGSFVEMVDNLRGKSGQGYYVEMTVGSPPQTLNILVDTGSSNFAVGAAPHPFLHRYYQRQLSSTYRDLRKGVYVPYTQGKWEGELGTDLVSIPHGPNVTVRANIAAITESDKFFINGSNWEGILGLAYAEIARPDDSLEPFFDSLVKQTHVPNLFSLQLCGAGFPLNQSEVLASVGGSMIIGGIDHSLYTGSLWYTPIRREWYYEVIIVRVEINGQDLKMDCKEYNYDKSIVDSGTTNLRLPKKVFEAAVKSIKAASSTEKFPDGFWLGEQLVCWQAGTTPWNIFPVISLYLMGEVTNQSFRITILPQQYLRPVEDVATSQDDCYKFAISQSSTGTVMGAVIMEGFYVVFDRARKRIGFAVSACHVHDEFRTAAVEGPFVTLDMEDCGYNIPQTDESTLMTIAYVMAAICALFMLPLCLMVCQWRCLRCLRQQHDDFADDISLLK

| SMILES | inhibition at 10 µM [1] | concentration at 3 h [2, 3] | concentration at 3 h [2, 4] | concentration at 3 h [2, 5] | concentration at 3 h [2, 6] |
| --- | --- | --- | --- | --- | --- |
| C[C@]1(F)CC(F)(F)[C@@](C)(c2cc(NC(=O)c3ccc(F)cn3)ccc2F)N=C1N [Compound 1, N-(3-((2R,5S)-6-amino-3,3,5-trifluoro-2,5-dimethyl-2,3,4,5-tetrahydropyridin-2-yl)-4-fluorophenyl)-5-fluoropicolinamide] | 104% | 2190 ng/g | 3540 ng/g | – | – |
| COc1cnc(C(=O)Nc2ccc(F)c([C@@]3(C)N=C(N)[C@@](C)(F)CC3(F)F)c2)cn1 [Compound 5, N-(3-((2R,5S)-6-amino-3,3,5-trifluoro-2,5-dimethyl-2,3,4,5-tetrahydropyridin-2-yl)-4-fluorophenyl)-5-methoxypyrazine-2-carboxamide] | 96% | 954 ng/g | 632 ng/g | 174 ng/g | 137 ng/g |
| COc1ccc(C(=O)Nc2ccc(F)c([C@@]3(C)N=C(N)[C@@](C)(F)CC3(F)F)c2)nc1 [Compound 17, N-(3-((2R,5S)-6-amino-3,3,5-trifluoro-2,5-dimethyl-2,3,4,5-tetrahydropyridin-2-yl)-4-fluorophenyl)-5-methoxypicolinamide] | 101% | 1220 ng/g | 828 ng/g | – | – |
| Cc1cc(C#N)cnc1C(=O)Nc1ccc(F)c([C@@]2(C)N=C(N)[C@@](C)(F)CC2(F)F)c1 [Compound 18, N-(3-((2R,5S)-6-amino-3,3,5-trifluoro-2,5-dimethyl-2,3,4,5-tetrahydropyridin-2-yl)-4-fluorophenyl)-5-cyano-3-methylpicolinamide] | 102% | 1610 ng/g | 3000 ng/g | 412 ng/g | 778 ng/g |
| C[C@@]1(F)CC(F)(F)[C@@](C)(c2cc(NC(=O)c3cnc(C(F)F)cn3)ccc2F)N=C1N [Compound 24, N-(3-((2R,5R)-6-amino-3,3,5-trifluoro-2,5-dimethyl-2,3,4,5-tetrahydropyridin-2-yl)-4-fluorophenyl)-5-(difluoromethyl)pyrazine-2-carboxamide] | 98% | 809 ng/g | 673 ng/g | 134 ng/g | 96.2 ng/g |
| Cc1nc(C(=O)Nc2ccc(F)c([C@@]3(C)N=C(N)[C@](C)(F)CC3(F)F)c2)co1 [Compound 34, N-(3-((2R,5R)-6-amino-3,3,5-trifluoro-2,5-dimethyl-2,3,4,5-tetrahydropyridin-2-yl)-4-fluorophenyl)-2-methyloxazole-4-carboxamide] | 102% | – | – | – | – |
| Cc1nc(C(=O)Nc2ccc(F)c([C@@]3(C)N=C(N)[C@](C)(F)CC3(F)F)c2)no1 [Compound 35, N-(3-((2R,5R)-6-amino-3,3,5-trifluoro-2,5-dimethyl-2,3,4,5-tetrahydropyridin-2-yl)-4-fluorophenyl)-5-methyl-1,2,4-oxadiazole-3-carboxamide] | 100% | – | – | – | – |
| C[C@@]1(F)CC(F)(F)[C@@](C)(c2cc(NC(=O)c3nccs3)ccc2F)N=C1N [Compound 36, N-(3-((2R,5R)-6-amino-3,3,5-trifluoro-2,5-dimethyl-2,3,4,5-tetrahydropyridin-2-yl)-4-fluorophenyl)thiazole-2-carboxamide] | 100% | – | – | – | – |
| Cn1cc(Br)nc1C(=O)Nc1ccc(F)c([C@@]2(C)N=C(N)[C@](C)(F)CC2(F)F)c1 [Compound 37, N-(3-((2R,5R)-6-amino-3,3,5-trifluoro-2,5-dimethyl-2,3,4,5-tetrahydropyridin-2-yl)-4-fluorophenyl)-4-bromo-1-methyl-1H-imidazole-2-carboxamide] | 104% | – | – | – | – |
| Cc1cn(C)c(C(=O)Nc2ccc(F)c([C@@]3(C)N=C(N)[C@](C)(F)CC3(F)F)c2)n1 [Compound 38, N-(3-((2R,5R)-6-amino-3,3,5-trifluoro-2,5-dimethyl-2,3,4,5-tetrahydropyridin-2-yl)-4-fluorophenyl)-1,4-dimethyl-1H-imidazole-2-carboxamide] | 98% | – | – | – | – |
| Cn1ccc(C(=O)Nc2ccc(F)c([C@@]3(C)N=C(N)[C@](C)(F)CC3(F)F)c2)n1 [Compound 39, N-(3-((2R,5R)-6-amino-3,3,5-trifluoro-2,5-dimethyl-2,3,4,5-tetrahydropyridin-2-yl)-4-fluorophenyl)-1-methyl-1H-pyrazole-3-carboxamide] | 74% | – | – | – | – |
| Cc1cc(C(=O)Nc2ccc(F)c([C@@]3(C)N=C(N)[C@](C)(F)CC3(F)F)c2)on1 [Compound 40, N-(3-((2R,5R)-6-amino-3,3,5-trifluoro-2,5-dimethyl-2,3,4,5-tetrahydropyridin-2-yl)-4-fluorophenyl)-3-methylisoxazole-5-carboxamide] | 69% | – | – | – | – |
| Cc1ccc(C(=O)Nc2ccc(F)c([C@@]3(C)N=C(N)[C@](C)(F)CC3(F)F)c2)o1 [Compound 41, N-(3-((2R,5R)-6-amino-3,3,5-trifluoro-2,5-dimethyl-2,3,4,5-tetrahydropyridin-2-yl)-4-fluorophenyl)-5-methylfuran-2-carboxamide] | 93% | – | – | – | – |
| Cc1ncc(C(=O)Nc2ccc(F)c([C@@]3(C)N=C(N)[C@](C)(F)CC3(F)F)c2)o1 [Compound 42, N-(3-((2R,5R)-6-amino-3,3,5-trifluoro-2,5-dimethyl-2,3,4,5-tetrahydropyridin-2-yl)-4-fluorophenyl)-2-methyloxazole-5-carboxamide trifluoroacetic acid salt] | 84% | – | – | – | – |
| [2H]C([2H])([2H])Oc1ccc(C(=O)Nc2ccc(F)c([C@@]3(C)N=C(N)[C@](C)(F)CC3(F)F)c2)nc1 [Compound 43, N-(3-((2R,5R)-6-amino-3,3,5-trifluoro-2,5-dimethyl-2,3,4,5-tetrahydropyridin-2-yl)-4-fluorophenyl)-5-(methoxy-d3)picolinamide] | 94% | – | – | – | – |
| C[C@@]1(F)CC(F)(F)[C@@](C)(c2cc(NC(=O)c3ccc(Cl)cc3)ccc2F)N=C1N [Compound 44, N-(3-((2R,5R)-6-amino-3,3,5-trifluoro-2,5-dimethyl-2,3,4,5-tetrahydropyridin-2-yl)-4-fluorophenyl)-4-chlorobenzamide] | 92% | – | – | – | – |
| C[C@]1(F)CC(F)(F)[C@@](C)(c2cc(NC(=O)c3ccc(OC(F)F)cn3)ccc2F)N=C1N [Compound 45, N-(3-((2R,5S)-6-amino-3,3,5-trifluoro-2,5-dimethyl-2,3,4,5-tetrahydropyridin-2-yl)-4-fluorophenyl)-5-(difluoromethoxy)picolinamide] | 103% | – | – | – | – |
| COc1cnc(C(=O)Nc2ccc(F)c([C@@]3(C)N=C(N)[C@@](C)(F)CC3(F)F)c2)c(F)c1 [Compound 46, N-(3-((2R,5S)-6-amino-3,3,5-trifluoro-2,5-dimethyl-2,3,4,5-tetrahydropyridin-2-yl)-4-fluorophenyl)-3-fluoro-5-methoxypicolinamide] | 101% | – | – | – | – |
| Cc1nc(C(=O)Nc2ccc(F)c([C@@]3(C)N=C(N)[C@@](C)(F)CC3(F)F)c2)c(C)o1 [Compound 47, N-(3-((2R,5S)-6-amino-3,3,5-trifluoro-2,5-dimethyl-2,3,4,5-tetrahydropyridin-2-yl)-4 fluorophenyl)-2,5-dimethyloxazole-4-carboxamide] | 102% | – | – | – | – |
| [2H]C([2H])([2H])Oc1ccc(C(=O)Nc2ccc(F)c([C@@]3(C)N=C(N)[C@@](C)(F)CC3(F)F)c2)nc1 [Compound 48] | 99% | – | – | – | – |
| Cc1cc(F)cnc1C(=O)Nc1ccc(F)c([C@@]2(C)N=C(N)[C@@](C)(F)CC2(F)F)c1 [Compound 49, N-(3-((2R,5S)-6-amino-3,3,5-trifluoro-2,5-dimethyl-2,3,4,5-tetrahydropyridin-2-yl)-4-fluorophenyl)-5-fluoro-3-methylpicolinamide] | 98% | – | – | – | – |

From patent US10004738B2, “Combination treatment comprising administration of 2-amino-3,5,5-trifluoro-3,4,5,6-tetrahydropyridines” (H. Lundbeck A/S, priority 2015, dated 2018)
